Source: ChEMBL document CHEMBL3352513, “Discovery of 3-Arylcoumarin-tetracyclic Tacrine Hybrids as Multifunctional Agents against Parkinson's Disease” (2014)
Active and inactive are the calls of the source. The calls are words filed in the database; no cut-off is given here.

Legend:
Caenorhabditis elegans [1] = experiment: Antioxidant activity in Caenorhabditis elegans N2 assessed as reduction in ROS generation H2DCFDA dye based fluorescent assay; format: functional
[2] = target: T1, Acetylcholinesterase 1 (Caenorhabditis elegans) (UniProt P38433); experiment: Inhibition of AChE in Caenorhabditis elegans assessed as increase in acetylcholine after 48 hrs by Amplex red assay
T1 sequence (whole entry): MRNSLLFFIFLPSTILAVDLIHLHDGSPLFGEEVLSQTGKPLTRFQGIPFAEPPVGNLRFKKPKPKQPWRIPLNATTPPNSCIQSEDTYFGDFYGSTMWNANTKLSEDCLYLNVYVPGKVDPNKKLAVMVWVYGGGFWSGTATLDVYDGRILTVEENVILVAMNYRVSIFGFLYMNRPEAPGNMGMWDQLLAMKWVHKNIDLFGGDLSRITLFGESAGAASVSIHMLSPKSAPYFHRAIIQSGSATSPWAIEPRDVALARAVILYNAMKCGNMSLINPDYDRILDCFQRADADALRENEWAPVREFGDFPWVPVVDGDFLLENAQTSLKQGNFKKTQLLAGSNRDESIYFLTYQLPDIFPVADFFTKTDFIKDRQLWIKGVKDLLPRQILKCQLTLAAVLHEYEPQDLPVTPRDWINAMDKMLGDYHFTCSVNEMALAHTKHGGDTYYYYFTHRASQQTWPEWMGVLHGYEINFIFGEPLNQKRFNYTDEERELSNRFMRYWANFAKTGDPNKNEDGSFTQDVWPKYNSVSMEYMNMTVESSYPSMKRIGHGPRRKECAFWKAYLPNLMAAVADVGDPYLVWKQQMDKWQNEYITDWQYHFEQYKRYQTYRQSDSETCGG

[3] = target: Alpha-synuclein (Homo sapiens) (UniProt P37840); experiment: Inhibition of YFP-tagged human alpha-synuclein aggregation expressed in transgenic Caenorhabditis elegans model NL5901 incubated for 48 hrs by fluorescent microscopy relative to untreated control
HEK293 [4] = experiment: Cytotoxicity against HEK293 cells assessed as inhibition of cell proliferation at 500 uM after 48 hrs by MTT assay; format: functional; settings: Homo sapiens, HEK293, 48 h; read-out: GI
Caenorhabditis elegans [5] = experiment: […] content in Caenorhabditis elegans N2 assessed as reduction in response time after 48 hrs nonanol repulsion assay; format: functional
HEK293 [6] = experiment: Cytotoxicity against HEK293 cells assessed as inhibition of cell proliferation at 2 mM after 48 hrs by MTT assay; format: functional; settings: Homo sapiens, HEK293, 48 h; read-out: GI
HepG2 [7] = experiment: Cytotoxicity against human HepG2 cells assessed as inhibition of cell proliferation at 500 uM after 48 hrs by MTT assay; format: functional; settings: HepG2, 48 h, read-out: GI
Caenorhabditis elegans [8] = experiment: […] content in Caenorhabditis elegans NL5901 assessed as reduction in response time after 48 hrs nonanol repulsion assay; format: functional
HepG2 [9] = experiment: Cytotoxicity against human HepG2 cells assessed as inhibition of cell proliferation at 2 mM after 48 hrs by MTT assay; format: functional; settings: HepG2, 48 h, read-out: GI
Caenorhabditis elegans [10] = experiment: Increase in DAF16 nuclear localization in GFP expressing Caenorhabditis elegans TJ356 after 48 hrs by fluorescence microscopy; format: functional, organism-based

| Compound | fold change (FC) (Caenorhabditis elegans [1]) | fold change (FC) [2] | inhibition [3] | inhibition of growth at 500 µM (HEK293 [4]) [%] | fold change (FC) [3] | inhibition of growth at 2000 µM (HEK293 [6]) [%] | inhibition of growth at 500 µM (HepG2 [7]) [%] | inhibition of growth at 2000 µM (HepG2 [9]) [%] | also measured |
| --- | --- | --- | --- | --- | --- | --- | --- | --- | --- |
| COc1ccc(-c2cc3cc(C4C5=C(CC(C)(C)CC5=O)Oc5nc6c(c(N)c54)CCC6)cc(C(C)C)c3oc2=O)cc1 (racemic) | 2.16 | 1.5 | inactive |  |  |  |  |  |  |
| COc1cc(-c2cc3cc(C4C5=C(CCCC5=O)Oc5nc6c(c(N)c54)CCCC6)cc(C(C)C)c3oc2=O)cc(OC)c1OC (racemic) | 1.72 | 1.2 |  | 54 | 2.6 | 73.8 | 26.1 | 27.8 | fold change (FC) (Caenorhabditis elegans [5]): 2.6; fold change (FC) (Caenorhabditis elegans [8]): 1.75; Activity (Caenorhabditis elegans [10]): Active |
| CCC(C)c1cc(C2C3=C(CCCC3=O)Oc3nc4c(c(N)c32)CCCC4)cc2cc(-c3cc(OC)c(OC)c(OC)c3)c(=O)oc12 (racemic) | 1.84 | 1.15 |  | 6.5 | 2.1 | 56.9 | 8.66 | 16.5 | fold change (FC) (Caenorhabditis elegans [5]): 1.8; fold change (FC) (Caenorhabditis elegans [8]): 1.9; Activity (Caenorhabditis elegans [10]): inactive |
| CCC(C)c1cc(C2C3=C(CC(C)(C)CC3=O)Oc3nc4c(c(N)c32)CCCC4)cc2cc(-c3cc(OC)c(OC)c(OC)c3)c(=O)oc12 (racemic) |  |  |  |  | 1.35 |  |  |  | inhibition [2]: inactive |
| CCC(C)c1cc(C2C3=C(CC(C)(C)CC3=O)Oc3nc4c(c(N)c32)CCCC4)cc2cc(-c3ccc(OC)cc3)c(=O)oc12 (racemic) |  | 1.51 |  |  | 2 |  |  |  |  |
| CCC(C)c1cc(C2C3=C(CCCC3=O)Oc3nc4c(c(N)c32)CCC4)cc2cc(-c3cc(OC)c(OC)c(OC)c3)c(=O)oc12 (racemic) |  | 1.14 |  |  | 1.76 |  |  |  |  |
| COc1ccc(-c2cc3cc(C4C5=C(CC(C)(C)CC5=O)Oc5nc6c(c(N)c54)CCC6)cc(C(C)C)c3oc2=O)cc1OC (racemic) |  | 1.19 | inactive |  |  |  |  |  |  |
| COc1ccc(-c2cc3cc(C4C5=C(CC(C)(C)CC5=O)Oc5nc6c(c(N)c54)CCCC6)cc(C(C)C)c3oc2=O)cc1 (racemic) |  | 1.88 |  |  |  |  |  |  |  |
| COc1ccc(-c2cc3cc(C4C5=C(CC(C)(C)CC5=O)Oc5nc6c(c(N)c54)CCCC6)cc(C(C)C)c3oc2=O)cc1OC (racemic) |  | 1.16 | inactive |  |  |  |  |  |  |
| Nc1c2c(nc3ccccc13)CCCC2 [TACRINE] |  |  |  | 72.3 |  | 83 | 83.4 | 86.9 |  |
